This assay relates to medullary pheochromocytoma (PC 12) cells. In words: PC12 cell differentiation (morphology) assay. The conditions noted are these: TPA 10 ng per ml, negative control. The class given is cell-based. Here is the method:
Cells: PC12 cell line derived from medullary pheochromocytoma cells were used to undertake studies described bellow. PC 12 cells were obtained from the American Type Culture Collection and maintained in RPMI-1640 supplemented with 10% fetal bovine serum (HYCLONE Inc), penicillin (100 U/ml) and streptomycin (100 µg/ml).
Methods: To evaluate the effect of colostrum, colostrinin and its component peptides on cell differentiation 3 x 10^4 logarithmically replicating (70% confluence) PC 12 cells were seeded in 24 x well plates and cells were allowed to adhere and grow for 24 hours. Serum containing media were aspirated and replaced for serum-free RPMI containing appropriate amount of antibiotics. In four parallel, increasing concentrations (0.1, 1, 10 and 100 µg per ml) of colostrum, colostrinin and its component peptides were added directly into the media and incubated at 37°C. As a positive control, nerve growth factor (NGF) 7S (Gibco-BRL) was used at 100 ng per ml concentration (Chao et al., Cell, 68, 995-997 (1992); and Marshall et al., Cell, 80, 179-185 (1995)). Phorbol 12-myristate 13-acetate (TPA: 10 ng per ml) was used as a negative control. Eight hours later the media were changed and RPMI-1640 was added containing 1% or 10% fetal bovine serum. The cultures were microscopically investigated 2nd, 4th and 6th days after treatment. […]

From patent EP1238058B1, “USE OF COLOSTRININ, C[…] AND ANALOGS THEREOF TO PROMOTE NEURAL CELL DIFFERENTIATION” (THE UNIVERSITY OF TEXAS SYSTEM, priority 1999, dated 2001) come the findings set out here.

Turning to Phorbol 12-myristate 13-acetate [TPA], the “background level of differentiation” value is listed as “less than 0.01%”.
